Laboratory results: article PMC10004090, “Novel Arylsulfonylhydrazones as Breast Anticancer Agents Discovered by Quantitative Structure-Activity Relationships” (Molecules, 2023)
Like-named read-outs stand apart in the source and are kept apart here.

Assays:
[1] = test system: MDA-MB-231; assay: MTT cytotoxicity test on MDA-MB-231 cell line; format: cell-based, human; details: for LE MDA-MB-231 Exp: LE = pIC50/N from MTT IC50, 72 h; for IC50: MTT, 72 h; for MDA-MB-231 SI: selectivity index = IC50 on Neuro-2a/IC50 on MDA-MB-231
Method: (§1) The anticancer activity of the novel arylsulfonylhydrazones was tested on two BC cell lines: MCF-7 and MDA-MB-231. The cell line MCF-7 originates from human breast adenocarcinoma and expresses estrogen receptor alpha (ER-α), while the cell line MDA-MB-231 represents TNBC adenocarcinoma and lacks any receptor [40]. To test the cytotoxicity of the compounds on healthy cells, they were incubated within Neuro-2a cells, which are mouse neuroblasts isolated from brain tissue.
(§2) The in vitro antineoplastic activity of the newly synthesized compounds was evaluated against human BC cell lines of different molecular types: the triple negative MDA-MB-231 cell line and the ER/PR/Her2 positive variant MCF-7, as well as against mouse neuroblast cells, Neuro-2a. All cell lines were purchased from the German Collection of Microorganisms and Cell Cultures (DSMZ GmbH, Braunschweig, Germany) and cultivated according to supplier’s instructions. Cells were cultured in an RPMI 1640 growth medium supplemented with 10% fetal bovine serum (FBS) and 5% L-glutamine, and incubated under standard conditions of 37 °C and 5% humidified CO2 atmosphere.
(§3) The cytostatic activity of the experimental compounds was investigated using an established methodology for assessing cell viability known as the Mosmann MTT method. The assay is colorimetric and measures the activity of mitochondrial enzymes by reducing the yellow dye MTT (3-(4,5-dimethylthiazol-2-yl)-2,5-diphenyltetrazolium bromide) to violet formazan crystals. Exponential-phased cells were harvested and seeded (100 μL/well) in 96-well plates at 1.5 × 10^5 density and incubated for 24 h. Cell cultures were treated and exposed to various concentrations (200–6.25 μM) of the tested compounds for 72 h, following which cell survival was quantified as percentage (%) relative to untreated control (100% cell viability).
(§4) Experimental data were processed using nonlinear regression analysis in the GraphPad Prism® software program. Semi-logarithmic “dose-response” curves were plotted and half-inhibitory concentrations (IC50) of the screened compounds were calculated for each of the tested tumor cell lines.

[2] = test system: MCF-7; assay: MTT cytotoxicity test on MCF-7 cell line; format: cell-based, human; details: for IC50: MTT, 72 h; for MCF-7 SI: selectivity index = IC50 on Neuro-2a/IC50 on MCF-7
Method: as §1, §2, §3, §4

[3] = test system: MCF-7; details: ligand efficiency LE = pIC50/N; training set 3a–o and cisplatin; cited from earlier work
[4] = test system: Neuro-2a; assay: MTT cytotoxicity test on Neuro-2a cells (healthy-cell control); format: cell-based, mouse; details: for IC50: MTT, 72 h, healthy cells
Method: as §1, §2, §3, §4

[5] = test system: MCF-7; details: ligand efficiency LE = pIC50/N; training set 5a–k and doxorubicin; cited from earlier work
[6] = test system: MDA-MB-468; details: ligand efficiency LE = pIC50/N; training set 5a–k and doxorubicin; cited from earlier work

N.N.[Cl][Pt][Cl] [Cisplatin, reference compound]
LE MDA-MB-231 Exp [1]: 0.840 | IC50 [1]: 63.4 ± 7.2 µM | IC50 [2]: 50300 ± 6500 nM | LE MCF-7 [3]: 0.931

COc1ccc2[nH]cc(/C=N\NS(=O)(=O)c3ccccc3)c2c1 [Compound 1a, N’-[(Z)-(5-methoxy-1H-indol-3-yl)methylidene]benzenesulfonohydrazide]
IC50 ([1]; Homo sapiens, MDA-MB-231, 72 h): 3.1 ± 0.7 µM | IC50 ([4]; Mus musculus, N2a): 5.2 ± 0.9 µM | IC50 ([2]; Homo sapiens, MCF7, 72 h): < 1000 nM | IC50 [2]: 600 ± 200 nM

COc1ccc2[nH]cc(/C=N/NS(=O)(=O)c3ccc(C)cc3)c2c1 [Compound 1b, N’-[(E)-(5-methoxy-1H-indol-3-yl)methylidene]-4-methylbenzenesulfonohydrazide]
melting point: 201 to 202 °C | IC50 ([1]; Homo sapiens, MDA-MB-231, 72 h): 8.5 ± 2.1 µM | IC50 ([4]; Mus musculus, N2a): 4 ± 0.4 µM | IC50 ([2]; Homo sapiens, MCF7, 72 h): < 1000 nM | IC50 [2]: 800 ± 300 nM | MCF-7 SI [2]: 5.000

CC(=O)n1cc(/C=N/NS(=O)(=O)c2ccccc2)c2ccccc21 [Compound 1c, N’-[(E)-(1-acetyl-1H-indol-3-yl)methylidene]benzenesulfonohydrazide]
melting point: 209 to 210 °C | IC50 ([1]; Homo sapiens, MDA-MB-231, 72 h): 19.2 ± 3.4 µM | IC50 ([4]; Mus musculus, N2a): 36.2 ± 4.3 µM | IC50 ([2]; Homo sapiens, MCF7, 72 h): < 1000 nM | IC50 [2]: 900 ± 400 nM

CC(=O)n1cc(/C=N/NS(=O)(=O)c2ccc(C)cc2)c2ccccc21 [Compound 1d, N’-[(E)-(1-acetyl-1H-indol-3-yl)methylidene]-4-methylbenzenesulfonohydrazide]
IC50 ([1]; Homo sapiens, MDA-MB-231, 72 h): 65.1 ± 6.1 µM | MDA-MB-231 SI [1]: 1.272 | IC50 ([4]; Mus musculus, N2a): 82.8 ± 8.1 µM | IC50 ([2]; Homo sapiens, MCF7, 72 h): 1800 ± 600 nM | MCF-7 SI [2]: 46

O=S(=O)(N/N=C/c1c[nH]c2ccc(Cl)cc12)c1ccccc1 [Compound 1e, N’-[(E)-(5-chloro-1H-indol-3-yl)methylidene]benzenesulfonohydrazide]
IC50 ([1]; Homo sapiens, MDA-MB-231, 72 h): < 1 µM | IC50 [1]: 0.9 ± 0.2 µM | IC50 ([4]; Mus musculus, N2a): 6.5 ± 1.1 µM | IC50 ([2]; Homo sapiens, MCF7, 72 h): < 1000 nM | IC50 [2]: 500 ± 100 nM | MCF-7 SI [2]: 13

COc1ccc(/C=N/NS(=O)(=O)c2ccccc2)cc1OC [Compound 1f, N’-[(E)-(3,4-dimethoxyphenyl)methylidene]benzenesulfonohydrazide]
IC50 ([1]; Homo sapiens, MDA-MB-231): 266 ± 19.7 µM | MDA-MB-231 SI [1]: 0.410 | IC50 ([2]; Homo sapiens, MCF7): 5970 ± 2100 nM

COc1ccc(/C=N/NS(=O)(=O)c2ccc(C)cc2)cc1OC [Compound 1g, N’-[(E)-(3,4-dimethoxyphenyl)methylidene]-4-methylbenzenesulfonohydrazide]
IC50 ([1]; Homo sapiens, MDA-MB-231): > 500 µM | IC50 ([2]; Homo sapiens, MCF7): 56100 ± 8400 nM | MCF-7 SI [2]: 2.415

O=S(=O)(N/N=C/c1ccc(Cl)cc1)c1ccccc1 [Compound 1h, N’-[(E)-(4-chlorophenyl)methylidene]benzenesulfonohydrazide]
IC50 ([1]; Homo sapiens, MDA-MB-231): 63.1 ± 6.9 µM | MDA-MB-231 SI [1]: 1.861 | IC50 ([2]; Homo sapiens, MCF7): 157000 ± 11200 nM | MCF-7 SI [2]: 0.747

Cc1ccc(S(=O)(=O)N/N=C\c2ccc3c(c2)OC(F)(F)O3)cc1 [Compound 3a]
LE MCF-7 [3]: 0.174

Cc1ccc(S(=O)(=O)N/N=C\c2cc(Br)cs2)cc1 [Compound 3b]
LE MCF-7 [3]: 0.203

Cc1ccc(S(=O)(=O)N/N=C\c2cc(-c3ccccc3)cs2)cc1 [Compound 3c]
LE MCF-7 [3]: 0.189

Cc1ccc(S(=O)(=O)N/N=C\c2ccc(F)c(Oc3ccccc3)c2)cc1 [Compound 3d]
LE MCF-7 [3]: 0.121

Cc1ccc(S(=O)(=O)N/N=C\c2cccc(C(F)(F)F)c2Cl)cc1 [Compound 3e]
LE MCF-7 [3]: 0.148

COc1cc(/C=N\NS(=O)(=O)c2ccc(C)cc2)ccc1F [Compound 3f]
LE MCF-7 [3]: 0.207

COc1ccc(/C=N\NS(=O)(=O)c2ccc(C)cc2)cc1[N+](=O)[O-] [Compound 3g]
LE MCF-7 [3]: 0.143

Cc1ccc(S(=O)(=O)N/N=C\c2c[nH]nc2-c2ccccc2)cc1 [Compound 3h]
LE MCF-7 [3]: 0.141

COc1ccc(Br)cc1/C=N\NS(=O)(=O)c1ccc(C)cc1 [Compound 3i]
LE MCF-7 [3]: 0.170

Cc1ccc(S(=O)(=O)N/N=C\c2ccc(F)cc2C(F)(F)F)cc1 [Compound 3j]
LE MCF-7 [3]: 0.148

COc1cccc(/C=N\NS(=O)(=O)c2ccc(C)cc2)c1Cl [Compound 3k]
LE MCF-7 [3]: 0.197

Cc1ccc(S(=O)(=O)N/N=C\c2c(C)cccc2Cl)cc1 [Compound 3l]
LE MCF-7 [3]: 0.180

Cc1ccc(S(=O)(=O)N/N=C\c2cccc(Br)n2)cc1 [Compound 3m]
LE MCF-7 [3]: 0.176

Cc1ccc(S(=O)(=O)N/N=C\c2cccn2C)cc1 [Compound 3n]
LE MCF-7 [3]: 0.207

Cc1ccc(S(=O)(=O)N/N=C\c2ccccc2OC(F)(F)F)cc1 [Compound 3o]
LE MCF-7 [3]: 0.166

COc1ccc(S(=O)(=O)N/N=C\c2cn(CCN3CCOCC3)c3ccccc23)cc1 [Compound 5a]
LE MCF-7 [5]: 0.136 | LE MDA-MB-468 [6]: 0.141

Cc1ccc(S(=O)(=O)N/N=C\c2cn(CCN3CCOCC3)c3ccccc23)cc1 [Compound 5b]
LE MCF-7 [5]: 0.140 | LE MDA-MB-468 [6]: 0.146

O=S(=O)(N/N=C\c1cn(CCN2CCOCC2)c2ccccc12)c1ccccc1 [Compound 5c]
LE MCF-7 [5]: 0.143 | LE MDA-MB-468 [6]: 0.149

O=S(=O)(N/N=C\c1cn(CCN2CCOCC2)c2ccccc12)c1ccc(F)cc1 [Compound 5d]
LE MCF-7 [5]: 0.150 | LE MDA-MB-468 [6]: 0.161

O=[N+]([O-])c1ccc(S(=O)(=O)N/N=C\c2cn(CCN3CCOCC3)c3ccccc23)cc1 [Compound 5e]
LE MCF-7 [5]: 0.128 | LE MDA-MB-468 [6]: 0.138

O=S(=O)(N/N=C\c1cn(CCN2CCOCC2)c2ccccc12)c1ccc(Cl)cc1 [Compound 5f]
LE MCF-7 [5]: 0.163 | LE MDA-MB-468 [6]: 0.170

O=S(=O)(N/N=C\c1cn(CCN2CCOCC2)c2ccccc12)c1ccc2ccccc2c1 [Compound 5h]
LE MCF-7 [5]: 0.116 | LE MDA-MB-468 [6]: 0.110

COc1cccc2c1C(=O)c1c(O)c3c(c(O)c1C2=O)C[C@@](O)(C(=O)CO)C[C@@H]3O[C@H]1C[C@H](N)[C@H](O)[C@H](C)O1 [Doxorubicin]
LE MCF-7 [5]: 0.185 | LE MDA-MB-468 [6]: 0.182

N’-[(E)-(5-methoxy-1-methyl-1H-indol-3-yl)methylidene]benzenesulfonohydrazide [Compound 1i]
LE MDA-MB-231 Exp [1]: 0.178 | IC50 [1]: 54.8 ± 7.4 µM | MDA-MB-231 SI [1]: 2.462 | Neuro-2a LE ([4]; LE = pIC50/N): 0.161 | IC50 [4]: 135 ± 10.9 µM | LE MCF-7 Exp ([2]; LE = pIC50/N from MTT IC50, 72 h): 0.158 | IC50 [2]: 165000 ± 8600 nM | MCF-7 SI [2]: 0.818
